In patent publication US7662936B2, “Mass spectrometry of antibody conjugates” (priority 2004, dated 2010):
Where a SMILES comes first, the peptide text is derived from it. [ ]: non-standard residue; d: D form. The star is where a group is joined. Dolaproine = CO[C@@H]([C@@H]1CCCN1)[C@@H](C)C(=O)O; Dil = CC[C@H](C)[C@H](NC)[C@@H](CC(=O)O)OC; X1 = C[C@@H](N*)[C@@H](O)c1ccccc1; NMeV = CN[C@H](C(=O)O)C(C)C

Assays:
[1] = Rat study of trastuzumab-MC-val-cit-PAB-MMAE (Example 8): clinical observations, mortality, body weight; assay type: in vivo, Sprague-Dawley rats
Experimental: Groups 2 and 3 were administered a preparation of Tr-MC-val-cit-PAB-MMAE with average drug loading of 8.7 MMAE/Tr. Groups 4, 5, and 6 were administered a preparation of Tr-MC-val-cit-PAB-MMAE with average drug loading of 5.3 MMAE/Tr. […] Group 6 received the highest dose of 4209 μg MMAE/m^2.
The dose solutions were administered by a single intravenous bolus tail-vein injection on Study Day 1 at a dose volume of 10 ml/kg. […] Body weights of the animals were measured pre-dose on Study Day 1 and daily thereafter. Whole blood was collected into EDTA containing tubes for hematology parameters and complete blood counts. Whole blood was collected into serum separator tubes for clinical chemistry parameters. Blood samples were collected pre-dose on […], and on Study Days 3 and 5. Whole blood was also collected into lithium heparin containing tubes and the plasma was frozen at −70° C. for later analysis.

[2] = cited from earlier work
[3] = more cytotoxic; cited from earlier work

Row | Compound | appearance of animals throughout the 5 days on study ([1]; Group 7, free MMAE 0.206 mg/kg, single iv bolus, 6 female rats) | changes in body weight ([1]; groups 2, 4 and 7, comparable amounts of MMAE (840 ug/m^2)) | adverse effects leading to discontinuation of clinical trials [2] | cytotoxicity relative to conventional cancer chemotherapeutic agents like methotrexate, daunorubicin, and vincristine [3]
1 | CC[C@H](C)[C@@H]([C@@H](CC(=O)N1CCC[C@H]1[C@H](OC)[C@@H](C)C(=O)N[C@H](C)[C@@H](O)c1ccccc1)OC)N(C)C(=O)[C@@H](NC(=O)[C@@H](NC)C(C)C)C(C)C [MMAE] (H-[NMeV]V[Dil][Dolaproine]-X1) | appeared healthy | comparable changes in body weight |  | 
2 | COc1cc2cc(c1Cl)N(C)C(=O)C[C@H](OC(=O)[C@H](C)N(C)C(C)=O)[C@]1(C)O[C@H]1[C@H](C)[C@@H]1C[C@@](O)(NC(=O)O1)[C@H](OC)/C=C/C=C(\C)C2 [Maytansine] |  |  | serious adverse effects on the central nervous system and gastrointestinal system | 100-to 1000 fold
